Values after ≈ are worked out from the molar mass of the structure shown. Like-named read-outs stand apart in the source and are kept apart here.
Assays:
[1] = pH solubility profile of Compound 1 in buffers, water, HCl and biorelevant media; format: physicochemical
[2] = Solubility of Compound 1 in alternative excipients/solvents (liquid formulations, cranberry juice dilution); format: physicochemical
Procedure: Liquid formulations of PEG400/EtOH and Compound 1 can be prepared using general methods for making liquid formulations known in the art. For example, Compound 1 was dissolved in EtOH with agitation and ambient temperature, then the desired amount of PEG400 was added to achieve the desired ratios.
The liquid formulations of the present example are prepared as described in Example 2. When additional excipients are included, they are added after dissolution of Compound 1 in ethanol.

[3] = Pharmacokinetics of solid solution capsule in patients with ANCA associated vasculitis; format: in vivo, Humans; conditions: for Days 57-85 Cmin, Mean / AUC(0-t) / Cmax / Tmax: 30 mg twice daily oral, 50:50 solid solution capsules; for AUC(0-t) / Cmax / Tmax: human, in vivo, po; for AUC(0-t): read-out: Day 1 AUC0-6hr, Mean; for Cmax: read-out: Day 1 Cmax, Mean; for Tmax: read-out: Day 1 Tmax, Mean
Procedure: Solid Solution capsules of Compound 1 comprising 50:50 macrogol-40-glycerol hydroxystearate:PEG-4000 were prepared using the general procedures described in Example 4.
Patients with AAV were randomized and double-blind in placebo-controlled clinical trial conducted in a step-wise manner to evaluate the efficacy and safety of Compound 1 formulated in a solid solution as described above with reduced or no prednisone in comparison with the standard of care full dose prednisone. All patients received either cyclophosphamide (CYC) or rituximab (RTX) intravenously. 22 subjects received 30 mg of Compound 1 as described above b.i.d. for 84 days and no prednisone (prednisone-matching placebo), 22 subjects received 30 mg Compound 1 as described above b.i.d. for 84 days plus a reduced starting dose (i.e., 20 mg/day) of prednisone, and 23 subjects received Compound 1 as described above—matching placebo b.i.d. for 84 days plus a full starting dose of prednisone (i.e., 60 mg/day). All subjects received IV cyclophosphamide or rituximab.

[4] = Food effect study (high fat, high calorie meal) in healthy volunteers; format: in vivo, human; conditions: for Tmax / AUC(0-inf) / AUC(0-t) / Cmax: human, plasma, 30 mg; for AUC(0-inf): read-out: AUC0-inf, Geometric LSM; for AUC(0-t): read-out: AUC0-t, Geometric LSM; for Cmax: read-out: Cmax, Geometric LSM
Procedure: An open-label study in 16 healthy volunteers to evaluate the pharmacokinetic effect of a high fat (˜50% of total caloric content of the meal), high calorie meal on the solid solution capsule of Compound 1 in a 50:50 mixture of macrogol-40-glycerol hydroxystearate:PEG-4000. Subjects received a single oral dose of 30 mg Compound 1, given in the fed or fasted state. Blood samples were collected for measurement of Compound 1 plasma concentrations.

[5] = AAV patients, Compound 1 + Low Dose Prednisone
[6] = 30 mg, AAV patients, Compound 1 + No Prednisone
[7] = 30 mg, AAV patients, Compound 1 with or without Prednisone
[8] = healthy volunteers, 30 mg single oral dose, 100 × (test/reference)
[9] = high fat, high calorie meal with 30 mg Compound 1
[10] = po, healthy volunteers, 30 mg single oral dose, 50:50 solid solution capsule, Fasted
[11] = po, healthy volunteers, 30 mg single oral dose, 50:50 solid solution capsule, Fed (high fat, high calorie meal)

Cc1ccc(NC(=O)[C@H]2CCCN(C(=O)c3c(C)cccc3F)[C@H]2c2ccc(NC3CCCC3)cc2)cc1C(F)(F)F [Compound 1, (2R,3 S)-2-(4-(cyclopentylamino)phenyl)-1-(2-fluoro-6-methylbenzoyl)-N-(4-methyl-3-(trifluoromethyl)phenyl)piperidine-3-carboxamide]
solubility ([1]; Fasted-State Simulated Intestinal Fluid (FaSSIF), FaSSIF, pH 6.5, actual pH 6.47): 0.656 µg/mL (≈ 1.13 µM) | solubility ([1]; Fed-State Simulated Intestinal Fluid (FeSSIF), FeSSIF, pH 5, actual pH 4.98): 2.09 µg/mL (≈ 3.6 µM) | solubility ([1]; Fed-State Simulated Intestinal Fluid (FeSSIF), FeSSIF, pH 6.5, actual pH 6.47): 1.96 µg/mL (≈ 3.37 µM) | solubility ([1]; Simulated Gastric Fluid (SGF), simulated gastric fluid, SGF, pH 1.6, actual pH 1.39): 2.65 µg/mL (≈ 4.55 µM) | solubility ([1]; Water, actual pH 5.92): 0.008 µg/mL (≈ 0.0138 µM) | aqueous solubility ([1]; across full spectrum of pH range, including the biorelevant media and water): very poor aqueous solubility | solubility ([1]; aqueous buffer, pH 2 Buffer, actual pH 1.99): 0.863 µg/mL (≈ 1.48 µM) | solubility ([1]; aqueous buffer, pH 3 Buffer, actual pH 3.01): 0.101 µg/mL (≈ 0.174 µM) | solubility ([1]; aqueous buffer, pH 4 Buffer, actual pH 4.01): 0.013 µg/mL (≈ 0.0224 µM) | solubility ([1]; aqueous buffer, pH 5 Buffer, actual pH 5.00): 0.021 µg/mL (≈ 0.0361 µM) | solubility ([1]; aqueous buffer, pH 6 Buffer, actual pH 6.00): 0.021 µg/mL (≈ 0.0361 µM) | solubility ([1]; aqueous buffer, pH 7 Buffer, actual pH 7.03): 0.053 µg/mL (≈ 0.0911 µM) | solubility ([1]; aqueous buffer, pH 8 Buffer, actual pH 8.00): 0.068 µg/mL (≈ 0.117 µM) | solubility ([1]; aqueous buffer, pH 9 Buffer, actual pH 9.00): 0.101 µg/mL (≈ 0.174 µM) | solubility ([1]; aqueous buffer, pH 10 Buffer, actual pH 9.95): 0.03 µg/mL (≈ 0.0516 µM) | solubility ([1]; simulated gastric fluid, 0.1N HCl, actual pH 1.05): 8.05 µg/mL (≈ 13.8 µM) | solubility ([2]; Captisol in water (40% w/v), aqueous with cosolvent or surfactant or cyclodextrin, thermodynamic from solid, Captisol in water (40% w/v), read-out: Solubility): 10 µg/mL (≈ 17.2 µM) | Additional Observations ([2]; Captisol in water (40% w/v), overnight): API undissolved overnight even with warming to 60°. | solubility ([2]; Cavitron W7 HP5 in water (40% w/v)): 50 µg/mL (≈ 86 µM) | Additional Observations ([2]; Cavitron W7 HP5 in water (40% w/v), overnight): API undissolved overnight even with warming to 60°. | Additional Observations ([2]; PEG400/EtOH/Cremophor EL (50/45/5 v/v), prepared 20 mg/mL formulation): A translucent solution with floating fine particles. | Additional Observations ([2]; PEG400/EtOH/Cremophor EL (70/25/5 v/v), prepared 20 mg/mL formulation): A translucent solution. | solubility ([2]; PEG400/EtOH/Solutol HS 15 (50/40/10 v/v), organic solvent or mixture, thermodynamic from solid, PEG400/EtOH/Solutol HS 15 (50/40/10 v/v), visually, against 30 mg/mL control solution, read-out: Solubility): ~30000 µg/mL (≈ 51600 µM) | Additional Observations ([2]; PEG400/EtOH/Solutol HS 15 (50/40/10 v/v), ~30 mg/mL, overnight): few API particles left overnight, did not attempt | solubility ([2]; PEG400/EtOH/Solutol HS 15 (50/45/5 v/v), organic solvent or mixture, thermodynamic from solid, PEG400/EtOH/Solutol HS 15 (50/45/5 v/v), visually, against 30 mg/mL control solution, read-out: Solubility): ~30000 µg/mL (≈ 51600 µM) | Additional Observations ([2]; PEG400/EtOH/Solutol HS 15 (50/45/5 v/v), ~30 mg/mL, overnight): API particles left overnight, did not attempt cranberry | Additional Observations ([2]; PEG400/EtOH/Solutol HS 15 (70/20/10 v/v), 20.4 mg/mL, in cranberry juice): Slow to precipitate with addition to cranberry juice. | solubility ([2]; PEG400/EtOH/Solutol HS 15 (70/20/10 v/v), organic solvent or mixture, PEG400/EtOH/Solutol HS 15 (70/20/10 v/v), read-out: Solubility): 20400 µg/mL (≈ 35100 µM) | Additional Observations ([2]; PEG400/EtOH/Solutol HS 15 (70/25/5 v/v), 20.0 mg/mL, in cranberry juice): Precipitate forms in cranberry juice. | solubility ([2]; PEG400/EtOH/Solutol HS 15 (70/25/5 v/v), organic solvent or mixture, PEG400/EtOH/Solutol HS 15 (70/25/5 v/v), read-out: Solubility): 20000 µg/mL (≈ 34400 µM) | solubility ([2]; PEG400/EtOH/Transcutol P (50/40/10 v/v), organic solvent or mixture, PEG400/EtOH/Transcutol P (50/40/10 v/v), second listing, read-out: Solubility): 20200 µg/mL (≈ 34700 µM) | solubility ([2]; PEG400/EtOH/Transcutol P (50/40/10 v/v), organic solvent or mixture, thermodynamic from solid, PEG400/EtOH/Transcutol P (50/40/10 v/v), visually, against 30 mg/mL control solution, read-out: Solubility): ~30000 µg/mL (≈ 51600 µM) | Additional Observations ([2]; PEG400/EtOH/Transcutol P (50/40/10 v/v), ~30 mg/mL, overnight): few API particles left overnight, did not attempt | solubility ([2]; PEG400/EtOH/Transcutol P (50/45/5 v/v), organic solvent or mixture, PEG400/EtOH/Transcutol P (50/45/5 v/v), second listing, read-out: Solubility): 19900 µg/mL (≈ 34200 µM) | solubility ([2]; PEG400/EtOH/Transcutol P (50/45/5 v/v), organic solvent or mixture, PEG400/EtOH/Transcutol P (50/45/5 v/v), visually, against 30 mg/mL control solution, read-out: Solubility): ~30000 µg/mL (≈ 51600 µM) | Additional Observations ([2]; PEG400/EtOH/Transcutol P (50/45/5 v/v), ~30 mg/mL, overnight): few API particles left overnight, did not attempt | solubility ([2]; PEG400/Propylene Glycol (50/50 v/v), organic solvent or mixture, PEG400/Propylene Glycol (50/50 v/v), read-out: Solubility): 10900 µg/mL (≈ 18700 µM) | Additional Observations ([2]; PEG400/Propylene Glycol (50/50 v/v), overnight, then addition of cranberry juice): Somewhat dissolved overnight, however, precipitation | solubility in control vehicle ([2]; control solution of PEG400/EtOH (50/50% v/v) with 30 mg/mL): Compound 1 is not fully soluble in control vehicle. A few | Days 57-85 Cmin, Mean [3, 5]: 219 ng/mL | Days 57-85 Cmin, Mean ([3]; AAV patients, Compound 1 + No Prednisone): 177 ng/mL | Days 57-85 Cmin, Mean ([3]; AAV patients, Compound 1 with or without Prednisone): 204 ng/mL | absorption ([3]; following the first dose of 30 mg on Day 1, AAV patients): absorbed rapidly | AUC(0-t) [3, 6]: 526 ng·h/mL | Cmax [3, 6]: 166 ± 55.2 ng/mL | Tmax [3, 6]: 2.85 h | AUC(0-t) [3, 7]: 580 ± 219 ng·h/mL | Cmax [3, 7]: 188 ± 69 ng/mL | Tmax [3, 7]: 2.62 h | AUC(0-t) [3, 5]: 643 ng·h/mL | Cmax [3, 5]: 214 ng/mL | Tmax [3, 5]: 2.35 h | drug-drug interaction ([3]; with concomitant medications prednisone, cyclophosphamide, and rituximab, AAV patients): No significant drug-drug interaction | AUC0-inf, GMR (fed/fasted) [4, 8]: 171.60% | AUC0-t, GMR (fed/fasted) [4, 8]: 170.68% | Cmax, GMR (fed/fasted) [4, 8]: 107.98% | Tmax, GMR (fed/fasted) [4, 8]: 235.29% | increase of Cmax, fed compared to fasted [4, 9]: 8% | increase of plasma Compound 1 AUC, fed compared to fasted [4, 9]: approximately 70% | Tmax ([4]; oral, high fat, high calorie meal with 30 mg Compound 1, read-out: delay of Tmax in the fed population): ~3 h | AUC(0-inf) [4, 10]: 959 ng·h/mL | AUC(0-t) [4, 10]: 826 ng·h/mL | Cmax [4, 10]: 119 ng/mL | Tmax ([4]; po, healthy volunteers, 30 mg single oral dose, 50:50 solid solution capsule, Fasted, read-out: Tmax, untransformed LSM): 2.29 h | AUC(0-inf) [4, 11]: 1650 ng·h/mL | AUC(0-t) [4, 11]: 1410 ng·h/mL | Cmax [4, 11]: 128 ng/mL | Tmax ([4]; po, healthy volunteers, 30 mg single oral dose, 50:50 solid solution capsule, Fed (high fat, high calorie meal), read-out: Tmax, untransformed LSM): 5.38 h
